From BindingDB's records for doi:10.1021/jm970141k (University of North Texas, 1997) come the findings set out here.

By Ki is commonly meant a measure of affinity in units of concentration, obtained from inhibition or displacement. Read a low Ki as higher affinity.

The nature of this test: In vitro inhibition of Acetylcholinesterase Activity in octopus brain.

For `CCCCCSC(=O)OCC[N+](C)(C)C` [Trimethyl-(2-pentylsulfanylcarbonyloxy-ethyl)-ammonium; chloride], affinity was put at a Ki of 2000 nM.
